Measured values from ChEMBL document CHEMBL1201862, “PubChem BioAssay data set” (2004).
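Exposure lasted 48 hours, with cells grown in 96-well plates and compounds tested at five concentrations. GI50: concentration for 50% inhibition of growth.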 The source made the active and inactive calls. No stated cut-off is given here; in the data, active = GI50 up to about 1.1 µM and inactive = higher.

Assays:
Assay in all cases: NCI anticancer screen, dose series, 48 h
[1] = test system: NCI-H460
[2] = test system: NCI-H23
[3] = test system: SF-295
[4] = test system: OVCAR-8
[5] = test system: SW-620
[6] = test system: 786-0
[7] = test system: OVCAR-4
[8] = test system: SK-OV-3
[9] = test system: DU-145
[10] = test system: HOP-62
[11] = test system: SF-539
[12] = test system: UACC-257
[13] = test system: LOX IMVI
[14] = test system: CCRF-CEM
[15] = test system: NCI/ADR-RES
[16] = test system: NCI-H226
[17] = test system: TK-10
[18] = test system: A498
[19] = test system: IGROV-1
[20] = test system: RPMI-8226
[21] = test system: PC-3
[22] = test system: U-251
[23] = test system: OVCAR-3
[24] = test system: SNB-19
[25] = test system: UO-31
[26] = test system: SF-268
[27] = test system: SK-MEL-28
[28] = test system: ACHN
[29] = test system: MDA-MB-231
[30] = test system: NCI-H522
[31] = test system: KM12
[32] = test system: MDA-N
[33] = test system: HL-60
[34] = test system: T47D
[35] = test system: SR
[36] = test system: A549
[37] = test system: HCT-15
[38] = test system: K562
[39] = test system: Hs-578T
[40] = test system: HCT-116
[41] = test system: UACC-62
[42] = test system: RXF 393
[43] = test system: Malme-3M
[44] = test system: COLO 205
[45] = test system: MCF7
[46] = test system: BT-549
[47] = test system: HOP-92
[48] = test system: SK-MEL-2
[49] = test system: SN12C
[50] = test system: SNB-75
[51] = test system: MOLT-4
[52] = test system: EKVX
[53] = test system: M14
[54] = test system: MDA-MB-435
[55] = test system: CAKI-1
[56] = test system: HT-29
[57] = test system: OVCAR-5
[58] = test system: SK-MEL-5
[59] = test system: HCC 2998

Measured: GI50

CCOC(=O)c1cccc(/N=N/c2nc[nH]c2/C=C/C(=O)OC)c1
inactive: [1] 16.5 µM | [2] 36.3 µM | [3] 12.9 µM | [4] 16.5 µM | [5] 6.47 µM | [6] 7.36 µM | [7] 6.58 µM | [8] 44.8 µM | [9] 37.4 µM | [10] 6.35 µM | [11] 7.14 µM | [12] 12.9 µM | [13] 7.43 µM | [14] 3.95 µM | [15] 4.1 µM | [16] 64.4 µM | [17] 28.4 µM | [18] 22.6 µM | [19] 7.53 µM | [20] 9.02 µM | [21] 17.8 µM | [22] 6.73 µM | [23] 3.15 µM | [24] 30.5 µM | [25] 8.15 µM | [26] 8.79 µM | [27] 18.1 µM | [28] 16.5 µM | [29] 4.39 µM | [30] 9.38 µM | [31] 15.8 µM | [32] 28.4 µM | [33] 3.37 µM | [34] 9.95 µM | [35] 2.11 µM | [36] 39.5 µM | [38] 4.06 µM | [39] 53.5 µM | [40] 4.17 µM | [41] 23.6 µM | [42] 16.4 µM | [43] 8.71 µM | [44] 4.39 µM | [45] 4.18 µM | [46] 42.6 µM | [47] 45.1 µM | [48] 23.7 µM | [49] 5.97 µM | [50] 18.5 µM | [51] 3.01 µM | [52] 26.5 µM | [53] 13.3 µM | [54] 37 µM | [55] 4.97 µM | [56] 6.98 µM | [57] 76.6 µM | [58] 7.36 µM | [59] 11 µM
5.13 µM: [37]

CCOC(=O)CC[C@H](N)C(=O)N[C@H](Cc1ccc(N(CCCl)CCCl)cc1)C(=O)OCC
active: [2] 0.857 µM | [6] 0.703 µM | [9] 0.348 µM | [25] 0.419 µM | [26] 0.414 µM | [28] 0.0706 µM | [34] 0.239 µM | [35] 0.09 µM | [42] 0.879 µM | [44] 0.977 µM | [47] 0.561 µM | [50] 0.468 µM | [55] 0.154 µM
inactive: [1] 1.58 µM | [3] 3.21 µM | [4] 2.97 µM | [5] 3.56 µM | [7] 5.18 µM | [8] 4.54 µM | [10] 2.26 µM | [11] 1.99 µM | [12] 10 µM | [13] 4.61 µM | [14] 1.96 µM | [15] 4.26 µM | [16] 7.76 µM | [17] 2.26 µM | [18] 8.53 µM | [19] 2.71 µM | [20] 7.06 µM | [21] 3.63 µM | [22] 6.47 µM | [23] 3.59 µM | [24] 16.1 µM | [27] 25.8 µM | [29] 6.55 µM | [30] 1.41 µM | [31] 3.32 µM | [32] 16.1 µM | [33] 4.16 µM | [36] 3.54 µM | [38] > 34.4 µM | [39] 2.39 µM | [40] 5.78 µM | [41] 1.51 µM | [43] 4.94 µM | [45] 1.21 µM | [46] 9.25 µM | [48] 12.3 µM | [49] 1.79 µM | [51] 1.18 µM | [52] 6.03 µM | [53] 1.42 µM | [54] 24.9 µM | [56] 3.92 µM | [57] 5.06 µM | [58] 45.3 µM | [59] 1.2 µM
4.39 µM: [37]
